Source: PubChem BioAssay (NCI)
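Assay format: 96-well plates, 48-hour exposure. Here, GI50 denotes the concentration required for 50% inhibition of growth. TGI: total growth inhibition.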

Tests used:
Assay in all cases: NCI tumour cell line growth inhibition, 48 h
[1] = tested on: A498 renal
[2] = tested on: ACHN renal
[3] = tested on: HCT-15 colon
[4] = tested on: KM12 colon
[5] = tested on: SW-620 colon
[6] = tested on: UACC-257 melanoma
[7] = tested on: SK-MEL-5 melanoma
[8] = tested on: SR leukemia
[9] = tested on: DU-145 prostate
[10] = tested on: PC-3 prostate

`CCCCc1c2cnccc2c(CCCC)c2c1[nH]c1ccccc12` gave a TGI [1] of 35.2 µM, a TGI [2] of 30.6 µM and a TGI [3] of 46 µM. For the same compound, the TGI [4] was 24.7 µM, the TGI [5] was over 100 µM and the TGI [6] was 36 µM.
Work on `O=C(Nc1ccccc1-c1nn(CN2CCNCC2)c(=S)n(CN2CCNCC2)c1=O)C(F)(F)F` yielded a TGI [1] of 35.3 µM, a TGI [2] of 63.9 µM and a TGI [3] of 31.6 µM. It also gave a TGI [4] of 40.7 µM, a TGI [7] of 31 µM and a TGI [5] of 22.2 µM. The TGI [6] was 31 µM.
Compound `C=CCN1/C(=C2\SC(=S)N(c3ccc(C)cc3)C2=O)Sc2c1ncn(C)c2=O` has a TGI [1] of over 100 µM, a TGI [2] of over 100 µM and a TGI [3] of over 100 µM. The TGI [4] was over 100 µM, the TGI [7] was over 100 µM and the TGI [8] was over 100 µM. For the same compound, the TGI [5] was over 100 µM and the TGI [6] was over 100 µM.
`N/N=C(\c1nc2ccc(Cl)cc2[nH]c1=O)C(O)c1ccc(Cl)c(Cl)c1` (configuration not stated) showed a TGI [2] of over 100 µM, a TGI [3] of over 100 µM and a TGI [4] of over 100 µM. For the same compound, the TGI [7] was over 100 µM, the TGI [8] was over 100 µM and the TGI [5] was over 100 µM. The TGI [6] was over 100 µM.
`COc1ccc(C(=O)CC2=Nc3nnc(CCCCCCCc4nnc5n4C(=O)C(CC(=O)c4ccc(OC)cc4)=N5)n3C2=O)cc1` gave a TGI [1] of over 100 µM, a TGI [2] of over 100 µM and a TGI [3] of over 100 µM. It also gave a TGI [4] of over 100 µM, a TGI [7] of over 100 µM and a TGI [8] of over 100 µM. The TGI [5] was over 100 µM and the TGI [6] was over 100 µM.
Work on `Cc1cc(C)c(C(=O)O)c(SSc2cc(C)cc(C)c2C(=O)O)c1` yielded a TGI [1] of over 100 µM, a TGI [2] of over 100 µM and a TGI [4] of over 100 µM. The TGI [7] was over 100 µM, the TGI [8] was over 100 µM and the TGI [5] was over 100 µM. For the same compound, the TGI [6] was over 100 µM.
`CCCN(CCC)C(=O)c1nc(N)nc(-c2ccc(OC)cc2)c1-c1ccc(OC)cc1` showed a TGI [1] of over 100 µM, a TGI [2] of over 100 µM and a TGI [3] of over 100 µM. It also gave a TGI [4] of over 100 µM, a TGI [7] of over 100 µM and a TGI [5] of over 100 µM. The TGI [6] was over 100 µM.
`COC1=CC(c2ccc[nH]2)=N/C1=C\c1[nH]c(C)c(CC(=O)OCc2ccccc2)c1C` was tested, and the GI50 [1] was 0.433 µM, the TGI [1] was 2.3 µM and the GI50 [2] was 0.296 µM. For the same compound, the TGI [2] was 0.886 µM, the GI50 [9] was 0.324 µM and the TGI [9] was 10.9 µM. It also gave a GI50 [3] of 0.292 µM, a TGI [3] of 1.1 µM and a GI50 [4] of 0.272 µM. For the same compound, the TGI [4] was 2.28 µM, the GI50 [10] was 0.299 µM and the TGI [10] was 10.3 µM. The GI50 [5] was 0.366 µM, the TGI [5] was 1.79 µM and the GI50 [6] was 0.605 µM. The TGI [6] was 2.24 µM.
With `COc1cc(C(=O)O[C@H](C(=O)NCCN(C)CCNC(=O)[C@@H](OC(=O)c2cc(OC)cc3c(C)cccc23)[C@]2(C)CO2)[C@]2(C)CO2)c2cccc(C)c2c1` the GI50 [1] was 0.888 µM, the TGI [1] was 2.82 µM and the GI50 [9] was under 0.0328 µM. For the same compound, the TGI [9] was 0.162 µM, the GI50 [3] was 0.0109 µM and the TGI [3] was 1.02 µM. It also gave a GI50 [4] of 0.0549 µM, a TGI [4] of 0.465 µM and a GI50 [7] of 0.0173 µM. The TGI [7] was 0.178 µM, the GI50 [5] was under 0.01 µM and the TGI [5] was 0.152 µM. For the same compound, the GI50 [6] was 0.416 µM and the TGI [6] was 2.38 µM.
With `CC1=NOC(=O)/C1=C/c1ccc([N+](=O)[O-])cc1` the TGI [1] was over 100 µM, the TGI [2] was over 100 µM and the TGI [3] was over 100 µM. It also gave a TGI [4] of over 100 µM, a TGI [7] of over 100 µM and a TGI [8] of over 100 µM. The TGI [5] was over 100 µM and the TGI [6] was over 100 µM.
For `O=C1CNC(=O)c2[nH]cnc2N1`, the TGI [1] was over 100 µM, the TGI [2] was over 100 µM and the TGI [3] was over 100 µM. The TGI [4] was over 100 µM, the TGI [7] was over 100 µM and the TGI [8] was over 100 µM. For the same compound, the TGI [5] was over 100 µM.
In the case of `COC(=O)[C@@H](C)[C@H]1CC[C@@](C)(CCC2=C(C)CC3C=C(C)CCC3C2(C)C)OO1` (some centres not stated), the TGI [1] is reported as 3.19 µM, the TGI [2] is reported as 2.87 µM and the TGI [3] is reported as 2.82 µM. The TGI [4] was 2.9 µM, the TGI [7] was 2.87 µM and the TGI [8] was 3.87 µM. It also gave a TGI [5] of 1.01 µM and a TGI [6] of 7.61 µM.
`COC1CCC(OC)C(C2(C3CC(OC)CCC3OC)OC(=O)c3ccccc32)C1` (configuration not stated) was tested, and the TGI [1] was over 100 µM, the TGI [2] was over 100 µM and the TGI [3] was over 100 µM. For the same compound, the TGI [4] was over 100 µM, the TGI [7] was over 100 µM and the TGI [8] was over 100 µM. For the same compound, the TGI [5] was over 100 µM and the TGI [6] was over 100 µM.
With `CC(C)=CC(=O)N[C@H]1CC[C@]2(C)C3CC[C@]4(C)C(C(C)N(C)C)=CCC4C3CCC2[C@H]1O` (some centres not stated) the GI50 [1] was 3.82 µM, the TGI [1] was 16.6 µM and the GI50 [2] was 7.95 µM. It also gave a TGI [2] of 21.3 µM, a GI50 [9] of 8.68 µM and a TGI [9] of 21.4 µM. The GI50 [3] was 1.55 µM, the TGI [3] was 4.2 µM and the GI50 [4] was 3.48 µM. It also gave a TGI [4] of 14.2 µM, a GI50 [10] of 3.88 µM and a TGI [10] of 18.1 µM. For the same compound, the GI50 [7] was 1.48 µM, the TGI [7] was 2.95 µM and the GI50 [5] was 1.97 µM. For the same compound, the TGI [5] was 4.55 µM, the GI50 [6] was 2.39 µM and the TGI [6] was 5.59 µM.
Work on `CC(C)C(=O)c1c(C(F)(F)F)n([O-])c2cc(F)c(F)cc2[n+]1=O` yielded a GI50 [1] of 0.13 µM, a TGI [1] of 1.33 µM and a GI50 [2] of 0.155 µM. It also gave a TGI [2] of 0.324 µM, a GI50 [9] of 0.592 µM and a TGI [9] of 1.72 µM. It also gave a GI50 [3] of 0.147 µM, a TGI [3] of 0.309 µM and a GI50 [4] of 1.83 µM. It also gave a TGI [4] of 4.69 µM, a GI50 [10] of 0.521 µM and a TGI [10] of 1.13 µM. For the same compound, the GI50 [7] was 0.197 µM, the TGI [7] was 0.609 µM and the GI50 [5] was 0.13 µM. It also gave a TGI [5] of 0.277 µM, a GI50 [6] of 2.28 µM and a TGI [6] of 6.38 µM.
`COc1ccc2oc(-c3ccc(OC)c(OC)c3OC)cc(=O)c2c1` gave a TGI [2] of over 100 µM, a TGI [5] of over 100 µM and a TGI [6] of over 100 µM.
In the case of `c1ccc(SC23C4C5C6C4C2C6C53)nc1` (configuration not stated), the TGI [1] is reported as over 100 µM, the TGI [2] is reported as over 100 µM and the TGI [3] is reported as over 100 µM. The TGI [4] was over 100 µM, the TGI [7] was over 100 µM and the TGI [8] was over 35 µM. For the same compound, the TGI [5] was over 100 µM and the TGI [6] was over 100 µM.
With `COC(=O)C1CC(OC(C)=O)C=C2C(=O)CCC21` (configuration not stated) the TGI [1] was over 100 µM, the TGI [2] was 46.3 µM and the TGI [3] was 30.9 µM. The TGI [4] was 31.6 µM, the TGI [7] was 67.9 µM and the TGI [8] was 45.4 µM. The TGI [5] was 39.4 µM and the TGI [6] was 37 µM.
`COc1cc(C(C)c2cc3c(cc2OCCNC(=O)COc2cc4c(cc2C(C)c2cc(OC)c(OC)c(OC)c2)OCO4)OCO3)cc(OC)c1OC` (configuration not stated) was tested, and the TGI [1] was over 100 µM, the TGI [2] was over 100 µM and the TGI [3] was over 100 µM. It also gave a TGI [4] of over 100 µM, a TGI [7] of over 100 µM and a TGI [8] of over 100 µM. For the same compound, the TGI [5] was over 100 µM and the TGI [6] was over 100 µM.
`C=C1C(=O)O[C@H]2[C@H]1CC/C(COC(=O)OC/C1=C/CC[C@@]3(C)O[C@H]3[C@H]3OC(=O)[C@@H](CN(C)C)[C@@H]3CC1)=C\CC[C@@]1(C)O[C@@H]21` was tested, and the GI50 [1] was 8.29 µM, the TGI [1] was 21.8 µM and the GI50 [2] was 0.457 µM. For the same compound, the TGI [2] was 1.69 µM, the GI50 [9] was 1.65 µM and the TGI [9] was 3.32 µM. It also gave a GI50 [3] of 1.04 µM, a TGI [3] of 2.53 µM and a GI50 [4] of 5.49 µM. The TGI [4] was 18.7 µM, the GI50 [10] was 2.7 µM and the TGI [10] was 7.89 µM. It also gave a GI50 [7] of 3.97 µM, a TGI [7] of 15.1 µM and a GI50 [5] of 0.445 µM. It also gave a TGI [5] of 1.85 µM, a GI50 [6] of 1.63 µM and a TGI [6] of 4.11 µM.
